In PubChem BioAssay (NCI):
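Exposure lasted 48 hours, with cells grown in 96-well plates and compounds tested at five concentrations. TGI marks complete inhibition of growth.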

Tests used:
Assay in all cases: growth of human tumour cells (NCI), 48 h
SK-MEL-28 melanoma = system: SK-MEL-28 melanoma
OVCAR-3 ovarian = system: OVCAR-3 ovarian
KM12 colon = system: KM12 colon
HCC-2998 colon = system: HCC-2998 colon
OVCAR-8 ovarian = system: OVCAR-8 ovarian
DMS 114 small cell lung = system: DMS 114 small cell lung
COLO 205 colon = system: COLO 205 colon
NCI-H226 lung = system: NCI-H226 lung
LXFL 529 NSCLC = system: LXFL 529 NSCLC
SF-295 CNS = system: SF-295 CNS
TK-10 renal = system: TK-10 renal
UACC-257 melanoma = system: UACC-257 melanoma
HOP-62 NSCLC = system: HOP-62 NSCLC
UO-31 renal = system: UO-31 renal
UACC-62 melanoma = system: UACC-62 melanoma
CAKI-1 renal = system: CAKI-1 renal
NCI-H522 lung = system: NCI-H522 lung
MALME-3M melanoma = system: MALME-3M melanoma
SNB-75 CNS = system: SNB-75 CNS
A498 renal = system: A498 renal
HOP-18 NSCLC = system: HOP-18 NSCLC
DLD-1 colon = system: DLD-1 colon
A549 NSCLC = system: A549 NSCLC
HCT-116 colon = system: HCT-116 colon
RXF 393 renal = system: RXF 393 renal
786-0 renal = system: 786-0 renal
IGROV1 ovarian = system: IGROV1 ovarian
OVCAR-5 ovarian = system: OVCAR-5 ovarian
M19-MEL melanoma = system: M19-MEL melanoma
CCRF-CEM leukemia = system: CCRF-CEM leukemia
SW-620 colon = system: SW-620 colon
KM20L2 colon = system: KM20L2 colon
NCI-H460 lung = system: NCI-H460 lung
U251 CNS = system: U251 CNS
LOX IMVI melanoma = system: LOX IMVI melanoma
XF 498 CNS = system: XF 498 CNS
HOP-92 NSCLC = system: HOP-92 NSCLC
HT29 colon = system: HT29 colon
SK-OV-3 ovarian = system: SK-OV-3 ovarian
SK-MEL-5 melanoma = system: SK-MEL-5 melanoma
HCT-15 colon = system: HCT-15 colon
NCI-H23 lung = system: NCI-H23 lung
HL-60(TB) leukemia = system: HL-60(TB) leukemia
M14 melanoma = system: M14 melanoma
SR leukemia = system: SR leukemia
RPMI-8226 leukemia = system: RPMI-8226 leukemia
K-562 leukemia = system: K-562 leukemia
SF-268 CNS = system: SF-268 CNS
SNB-19 CNS = system: SNB-19 CNS
MOLT-4 leukemia = system: MOLT-4 leukemia
SF-539 CNS = system: SF-539 CNS
EKVX NSCLC = system: EKVX NSCLC
ACHN renal = system: ACHN renal
SN12C renal = system: SN12C renal
OVCAR-4 ovarian = system: OVCAR-4 ovarian
SNB-78 CNS = system: SNB-78 CNS
DMS 273 small cell lung = system: DMS 273 small cell lung
SK-MEL-2 melanoma = system: SK-MEL-2 melanoma

For `Cc1cccc(C)c1NC(=O)CCC(=O)NNC(=O)c1cc(O)c2ccccc2c1`, the TGI (SK-MEL-28 melanoma) was > 100 µM, the TGI (OVCAR-3 ovarian) was > 100 µM and the TGI (KM12 colon) was > 100 µM. The TGI (HCC-2998 colon) was > 100 µM, the TGI (OVCAR-8 ovarian) was 87.4 µM and the TGI (DMS 114 small cell lung) was 65.2 µM. The TGI (COLO 205 colon) was 49 µM, the TGI (NCI-H226 lung) was > 100 µM and the TGI (LXFL 529 NSCLC) was > 100 µM. The TGI (SF-295 CNS) was 87.6 µM, the TGI (TK-10 renal) was > 100 µM and the TGI (UACC-257 melanoma) was > 100 µM. For the same compound, the TGI (HOP-62 NSCLC) was > 100 µM, the TGI (UO-31 renal) was > 100 µM and the TGI (UACC-62 melanoma) was 71.3 µM. For the same compound, the TGI (CAKI-1 renal) was > 100 µM, the TGI (NCI-H522 lung) was 82.3 µM and the TGI (MALME-3M melanoma) was > 100 µM. For the same compound, the TGI (SNB-75 CNS) was > 100 µM, the TGI (A498 renal) was 3.78 µM and the TGI (HOP-18 NSCLC) was > 100 µM. For the same compound, the TGI (DLD-1 colon) was > 100 µM, the TGI (A549 NSCLC) was > 100 µM and the TGI (HCT-116 colon) was > 100 µM. The TGI (RXF 393 renal) was > 100 µM, the TGI (786-0 renal) was > 100 µM and the TGI (IGROV1 ovarian) was > 100 µM. For the same compound, the TGI (OVCAR-5 ovarian) was > 100 µM, the TGI (M19-MEL melanoma) was > 100 µM and the TGI (CCRF-CEM leukemia) was 72.5 µM. For the same compound, the TGI (SW-620 colon) was > 100 µM, the TGI (KM20L2 colon) was > 100 µM and the TGI (NCI-H460 lung) was > 100 µM. The TGI (U251 CNS) was > 100 µM, the TGI (LOX IMVI melanoma) was > 100 µM and the TGI (XF 498 CNS) was > 100 µM. For the same compound, the TGI (HOP-92 NSCLC) was > 100 µM, the TGI (HT29 colon) was > 100 µM and the TGI (SK-OV-3 ovarian) was > 100 µM. The TGI (SK-MEL-5 melanoma) was 84.6 µM, the TGI (HCT-15 colon) was > 100 µM and the TGI (NCI-H23 lung) was 88 µM. The TGI (HL-60(TB) leukemia) was 95.2 µM, the TGI (M14 melanoma) was > 100 µM and the TGI (SR leukemia) was > 100 µM. For the same compound, the TGI (RPMI-8226 leukemia) was > 100 µM, the TGI (K-562 leukemia) was > 100 µM and the TGI (SF-268 CNS) was > 100 µM. For the same compound, the TGI (SNB-19 CNS) was > 100 µM, the TGI (MOLT-4 leukemia) was > 100 µM and the TGI (SF-539 CNS) was 78.2 µM. For the same compound, the TGI (EKVX NSCLC) was > 100 µM, the TGI (ACHN renal) was > 100 µM and the TGI (SN12C renal) was > 100 µM.
With `c1ccc2[nH]c(-c3nc4ccccc4o3)nc2c1` the TGI (SK-MEL-28 melanoma) was > 100 µM, the TGI (OVCAR-3 ovarian) was > 100 µM and the TGI (KM12 colon) was > 100 µM. For the same compound, the TGI (HCC-2998 colon) was > 100 µM, the TGI (OVCAR-8 ovarian) was > 100 µM and the TGI (DMS 114 small cell lung) was > 100 µM. For the same compound, the TGI (COLO 205 colon) was > 100 µM, the TGI (NCI-H226 lung) was > 100 µM and the TGI (LXFL 529 NSCLC) was > 100 µM. The TGI (SF-295 CNS) was > 100 µM, the TGI (TK-10 renal) was > 100 µM and the TGI (UACC-257 melanoma) was > 100 µM. For the same compound, the TGI (HOP-62 NSCLC) was > 100 µM, the TGI (UO-31 renal) was > 100 µM and the TGI (NCI-H522 lung) was > 100 µM. The TGI (MALME-3M melanoma) was > 100 µM, the TGI (SNB-75 CNS) was > 100 µM and the TGI (OVCAR-4 ovarian) was > 100 µM. For the same compound, the TGI (A498 renal) was > 100 µM, the TGI (DLD-1 colon) was > 100 µM and the TGI (A549 NSCLC) was > 100 µM. The TGI (HCT-116 colon) was > 100 µM, the TGI (786-0 renal) was > 100 µM and the TGI (SNB-78 CNS) was > 100 µM. The TGI (IGROV1 ovarian) was > 100 µM, the TGI (OVCAR-5 ovarian) was > 100 µM and the TGI (M19-MEL melanoma) was > 100 µM. For the same compound, the TGI (CCRF-CEM leukemia) was > 100 µM, the TGI (DMS 273 small cell lung) was > 100 µM and the TGI (KM20L2 colon) was > 100 µM. The TGI (SK-MEL-2 melanoma) was > 100 µM, the TGI (NCI-H460 lung) was > 100 µM and the TGI (U251 CNS) was > 100 µM. The TGI (LOX IMVI melanoma) was > 100 µM, the TGI (XF 498 CNS) was > 100 µM and the TGI (HOP-92 NSCLC) was > 100 µM. The TGI (HT29 colon) was > 100 µM, the TGI (SK-OV-3 ovarian) was > 100 µM and the TGI (SK-MEL-5 melanoma) was > 100 µM. For the same compound, the TGI (HCT-15 colon) was > 100 µM, the TGI (NCI-H23 lung) was > 100 µM and the TGI (HL-60(TB) leukemia) was > 100 µM. For the same compound, the TGI (M14 melanoma) was > 100 µM, the TGI (SR leukemia) was > 100 µM and the TGI (RPMI-8226 leukemia) was > 100 µM. The TGI (SF-268 CNS) was > 100 µM, the TGI (MOLT-4 leukemia) was > 100 µM and the TGI (SF-539 CNS) was > 100 µM. For the same compound, the TGI (EKVX NSCLC) was > 100 µM, the TGI (ACHN renal) was > 100 µM and the TGI (SN12C renal) was > 100 µM.
